Calls of active or inactive are those of the source.
Key:
[1] = test system: Bacillus endophyticus; experiment: Antimicrobial activity against Bacillus endophyticus SP31 isolate at <500 uM by broth dilution assay; assay type: functional; conditions: Priestia endophytica
[2] = test system: Staphylococcus aureus; experiment: Growth inhibition of methicillin-resistant Staphylococcus aureus; assay type: functional, organism-based
[3] = test system: Staphylococcus aureus; experiment: Reduction of alpha-toxin secretion in biofilm-forming methicillin-resistant Staphylococcus aureus at <150 uM; assay type: functional, organism-based

Measured: Activity

CC(=O)c1nc(C(=O)NCCc2c[nH]c3ccccc23)cs1
inactive: all assays above

C[C@@H](O)c1nc(C(=O)NCCc2c[nH]c3ccccc23)cs1
inactive: all assays above

CC(=O)N[C@H](C)c1nc(C(=O)NCCc2c[nH]c3ccccc23)cs1
inactive: all assays above
